Patent US9938273B2 (Plexxikon Inc., priority 2015, dated 2018)

Experiments:
[1] = target: T1, FLT3-ITD (Homo sapiens, UniProt P36888); test: AlphaScreen kinase assay with recombinant enzyme, FLT3-ITD; type: biochemical; settings: 8pt; read-out: FLT3_ITD 8pt: IC50
T1 sequence (P36888 1-993): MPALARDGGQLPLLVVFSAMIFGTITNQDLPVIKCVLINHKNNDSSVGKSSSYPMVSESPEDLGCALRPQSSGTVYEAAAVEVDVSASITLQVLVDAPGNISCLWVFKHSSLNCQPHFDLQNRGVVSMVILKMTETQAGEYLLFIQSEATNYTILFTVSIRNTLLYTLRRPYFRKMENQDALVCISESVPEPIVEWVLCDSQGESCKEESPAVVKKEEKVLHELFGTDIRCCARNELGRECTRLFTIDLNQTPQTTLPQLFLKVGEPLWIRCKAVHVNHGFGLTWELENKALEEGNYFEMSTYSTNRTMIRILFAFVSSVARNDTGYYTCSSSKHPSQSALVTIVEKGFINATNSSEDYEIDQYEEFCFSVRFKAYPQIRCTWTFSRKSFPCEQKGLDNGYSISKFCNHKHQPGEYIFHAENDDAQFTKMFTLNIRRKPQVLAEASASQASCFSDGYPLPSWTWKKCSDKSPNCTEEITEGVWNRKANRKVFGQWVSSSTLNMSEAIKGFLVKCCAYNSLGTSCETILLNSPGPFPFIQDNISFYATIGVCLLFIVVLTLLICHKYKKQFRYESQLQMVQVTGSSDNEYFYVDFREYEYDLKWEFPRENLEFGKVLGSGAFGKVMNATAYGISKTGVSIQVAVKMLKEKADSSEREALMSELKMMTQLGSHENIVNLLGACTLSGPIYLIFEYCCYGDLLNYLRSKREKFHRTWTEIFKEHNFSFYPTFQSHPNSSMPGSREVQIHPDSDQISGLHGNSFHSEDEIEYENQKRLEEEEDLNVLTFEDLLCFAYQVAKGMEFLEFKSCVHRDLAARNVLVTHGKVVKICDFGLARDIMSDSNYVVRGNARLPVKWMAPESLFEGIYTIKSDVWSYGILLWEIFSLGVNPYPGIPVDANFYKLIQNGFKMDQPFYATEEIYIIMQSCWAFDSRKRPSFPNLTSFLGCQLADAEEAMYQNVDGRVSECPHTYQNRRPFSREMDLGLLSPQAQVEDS
In short: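 AlphaScreen, biotinylated poly(Glu4-Tyr) 30 nM final; PY20 anti-pTyr acceptor and streptavidin donor beads 10 μg/mL; IC50 final conc. 10 μM (FLT3-D835Y, FLT3-ITD) / 100 μM (c-KIT); detection incubations 20 + 60 min RT; 580 nm emission.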

[2] = test system: MOLM-14 F691L cells, FLT3 ITD and FLT3 F691L; test: Cell proliferation assay (CellTiter-Glo), MOLM-14 F691L; type: cell-based; settings: Homo sapiens, 72 h, 3d-Growth, GMean
From the text: The FLT3 inhibitors may be assessed using the MOLM-14, Acute Myeloid Leukemia cell line that endogenously expresses FLT3 ITD or derivatives of the human FLT3 AML cell line which acquired the D835Y (activation loop) of F691L (gatekeeper) mutation after selection in escalating doses of the FLT3 Inhibitor AC220. FLT3 inhibitors may also be assessed using cells that are engineered to express mutant FLT3. For engineered cells, murine Ba/F3 cells were transfected with full-length FLT3 ITD/D835Y mutations. The parental BA/F3 cells are dependent upon Interleukin-3 (IL-3) for survival, and introduction of the FLT3 constructs rendered these cells dependent upon FLT3 kinase activity when cultured in the absences of IL-3. Engineered BA/F3 cell growth assays can be performed in either the […] of IL-3, to assess the compound inhibition of FLT3 or to detect the presence of off-target activity, respectively. Inhibitors of FLT3 kinase activity reduce or eliminate the FLT3 oncogenic signaling, resulting in reduced cell proliferation. This inhibition is measured as a function of compound concentration to asses IC50 values.
Cell lines used in proliferation assays are as follows in Table 3:
Cells were seeded at 1×10^4 cells per well of a 96 well cell culture plate in 50 μl of cell culture medium. Compounds were dissolved in DMSO, typically at a concentration of 0.5 mM and were serially diluted 1:3 for a total of eight points and added to the cells to final concentrations of […], 0.0041, 0.0014 and 0.00046 μM in 100 μl cell culture medium (final concentration 0.2% DMSO). […] The cells were incubated at 37° C., 5% CO2 for three days. CellTiter-Glo Buffer (Promega Cell Viability Assay catalog #G7573) and substrate were equilibrated to room temperature, and enzyme/substrate Recombinant Firefly Luciferase/Beetle Luciferin was reconstituted. The cell plates were equilibrated to room temperature for 30 minutes, then lysed by addition of an equivalent volume of the Celltiter-Glo Reagent. The plate was mixed for 10 minutes on a plate shaker to lyse the cells. The plates were read on a Tecan M1000 using Luminescence protocol modified to read 0.1 s per well. The luminescence reading assesses the ATP content, which correlates directly with cell number such that the reading as a function of compound concentration was used to determine the IC50 value.

Structure (SMILES) | IC50 [1] | IC50 [2]
CC1(C)CC=C(c2cc3cc(-c4cccc(C(=O)N5CCC(C#N)C5)n4)cnc3[nH]2)CC1 (stereo not shown) [Compound P-0131, 1-[6-[2-(4,4-dimethylcyclohexen-1-yl)-1H-pyrrolo[2,3-b]pyridin-5-yl]pyridine-2-carbonyl]pyrrolidine-3-carbonitrile] | 0.0001 to 10 µM | 0.0001 to 10 µM
N#CC1CCN(C(=O)c2cccc(-c3cnc4[nH]c(C5=CCOCC5)cc4c3)n2)C1 (stereo not shown) [Compound P-0132, 1-[6-[2-(3,6-dihydro-2H-pyran-4-yl)-1H-pyrrolo[2,3-b]pyridin-5-yl]pyridine-2-carbonyl]pyrrolidine-3-carbonitrile] | 0.0001 to 10 µM | 0.0001 to 10 µM
N#CC1CCN(C(=O)c2cccc(-c3cnc4[nH]c(-c5cnn(C(F)F)c5)cc4c3)n2)C1 (stereo not shown) [Compound P-0134, 1-[6-[2-[1-(difluoromethyl)pyrazol-4-yl]-1H-pyrrolo[2,3-b]pyridin-5-yl]pyridine-2-carbonyl]pyrrolidine-3-carbonitrile] | 0.0001 to 10 µM | 0.0001 to 10 µM
CC(C)(C#N)CNC(=O)c1cccc(-c2cnc3[nH]c(-c4ccccc4)c(Cl)c3c2)n1 [Compound P-0138, 6-(3-chloro-2-phenyl-1H-pyrrolo[2,3-b]pyridin-5-yl)-N-(2-cyano-2-methyl-propyl)pyridine-2-carboxamide] | 0.0001 to 10 µM | 0.0001 to 10 µM
CC(C)(C#N)CNC(=O)c1cccc(-c2cnc3[nH]c(C4=CCN(C(=O)C5CC5)C4)cc3c2)n1 [Compound P-0141, N-(2-cyano-2-methyl-propyl)-6-[2-[1-(cyclopropanecarbonyl)-2,5-dihydropyrrol-3-yl]-1H-pyrrolo[2,3-b]pyridin-5-yl]pyridine-2-carboxamide] | 0.0001 to 10 µM | 0.0001 to 10 µM
N#CCCNC(=O)c1cccc(-c2cnc3[nH]c(-c4ccccc4)c(Br)c3c2)n1 [Compound P-0147, 6-(3-bromo-2-phenyl-1H-pyrrolo[2,3-b]pyridin-5-yl)-N-(2-cyanoethyl)pyridine-2-carboxamide] | 0.0001 to 10 µM | 0.0001 to 10 µM
CC(C)(C#N)CNC(=O)c1cccc(-c2cnc3[nH]c(C4=CCC(F)(F)CC4)cc3c2)n1 [Compound P-0157, N-(2-cyano-2-methyl-propyl)-6-[2-(4,4-difluorocyclohexen-1-yl)-1H-pyrrolo[2,3-b]pyridin-5-yl]pyridine-2-carboxamide] | 0.0001 to 10 µM | 0.0001 to 10 µM
CC(C)(C#N)CNC(=O)c1cccc(-c2cnc3[nH]c(C4=CC[S+]([O-])CC4)cc3c2)n1 (stereo not shown) [Compound P-0161, N-(2-cyano-2-methyl-propyl)-6-[2-(1-oxo-3,6-dihydro-2H-thiopyran-4-yl)-1H-pyrrolo[2,3-b]pyridin-5-yl]pyridine-2-carboxamide] | 0.0001 to 10 µM | 0.0001 to 10 µM
CC(C)(C#N)CNC(=O)c1cccc(-c2cnc3[nH]c(C4=CCN(C(=O)C5CC5)CC4)cc3c2)n1 [Compound P-0162, N-(2-cyano-2-methyl-propyl)-6-[2-[1-(cyclopropanecarbonyl)-3,6-dihydro-2H-pyridin-4-yl]-1H-pyrrolo[2,3-b]pyridin-5-yl]pyridine-2-carboxamide] | 0.0001 to 10 µM | 0.0001 to 10 µM

More lines, now with the values ahead:

IC50 [1] | IC50 [2] | Structure (SMILES)
0.0001 to 10 µM | 0.0001 to 10 µM | CC(C)(C#N)CNC(=O)c1cccc(-c2cnc3[nH]c(C4=CCCCC4)cc3c2)n1 [Compound P-0123, N-(2-cyano-2-methyl-propyl)-6-[2-(cyclohexen-1-yl)-1H-pyrrolo[2,3-b]pyridin-5-yl]pyridine-2-carboxamide]
0.0001 to 10 µM | 0.0001 to 10 µM | N#CC1CCN(C(=O)c2cccc(-c3cnc4[nH]c(C5=CCN(C(=O)C6CC6)C5)cc4c3)n2)C1 (stereo not shown) [Compound P-0136, 1-[6-[2-[1-(cyclopropanecarbonyl)-2,5-dihydropyrrol-3-yl]-1H-pyrrolo[2,3-b]pyridin-5-yl]pyridine-2-carbonyl]pyrrolidine-3-carbonitrile]
0.0001 to 10 µM | 0.0001 to 10 µM | N#CC1(CNC(=O)c2cccc(-c3cnc4[nH]c(-c5ccccc5)cc4c3)n2)CC1 [Compound P-0137, N-[(1-cyanocyclopropyl)methyl]-6-(2-phenyl-1H-pyrrolo[2,3-b]pyridin-5-yl)pyridine-2-carboxamide]
0.0001 to 10 µM | 0.0001 to 10 µM | CC(C)(C)NC(=O)c1cccc(-c2cnc3[nH]c(-c4ccccc4)cc3c2)n1 [Compound P-0140, N-tert-butyl-6-(2-phenyl-1H-pyrrolo[2,3-b]pyridin-5-yl)pyridine-2-carboxamide]
0.0001 to 10 µM | 0.0001 to 10 µM | CC(C)(C#N)CNC(=O)c1cccc(-c2cnc3[nH]c(-c4ccc(F)cc4)cc3c2)n1 [Compound P-0144, N-(2-cyano-2-methyl-propyl)-6-[2-(4-fluorophenyl)-1H-pyrrolo[2,3-b]pyridin-5-yl]pyridine-2-carboxamide]
0.0001 to 10 µM | 0.0001 to 10 µM | CC(C)(C#N)NC(=O)c1cccc(-c2cnc3[nH]c(-c4ccc(F)cc4)cc3c2)n1 [Compound P-0145, N-(1-cyano-1-methyl-ethyl)-6-[2-(4-fluorophenyl)-1H-pyrrolo[2,3-b]pyridin-5-yl]pyridine-2-carboxamide]
0.0001 to 10 µM | 0.0001 to 10 µM | N#CC1(NC(=O)c2cccc(-c3cnc4[nH]c(-c5ccccc5)cc4c3)n2)CCCC1 [Compound P-0146, N-(1-cyanocyclopentyl)-6-(2-phenyl-1H-pyrrolo[2,3-b]pyridin-5-yl)pyridine-2-carboxamide]
0.0001 to 10 µM | 0.0001 to 10 µM | CC(C)(O)CNC(=O)c1cccc(-c2cnc3[nH]c(-c4ccccc4)cc3c2)n1 [Compound P-0150, N-(2-hydroxy-2-methyl-propyl)-6-(2-phenyl-1H-pyrrolo[2,3-b]pyridin-5-yl)pyridine-2-carboxamide]
0.0001 to 10 µM | 0.0001 to 10 µM | CC(C)(C#N)CNC(=O)c1cccc(-c2cnc3[nH]c(-c4cnn(C(F)F)c4)cc3c2)n1 [Compound P-0153, N-(2-cyano-2-methyl-propyl)-6-[2-[1-(difluoromethyl)pyrazol-4-yl]-1H-pyrrolo[2,3-b]pyridin-5-yl]pyridine-2-carboxamide]
0.0001 to 10 µM | 0.0001 to 10 µM | O=C(NC1(C(F)(F)F)CC1)c1cccc(-c2cnc3[nH]c(-c4ccccc4)cc3c2)n1 [Compound P-0156, 6-(2-phenyl-1H-pyrrolo[2,3-b]pyridin-5-yl)-N-[1-(trifluoromethyl)cyclopropyl]pyridine-2-carboxamide]
0.0001 to 10 µM | 0.0001 to 10 µM | CC(C)(C#N)CNC(=O)c1cccc(-c2cnc3[nH]c(C4=CCS(=O)(=O)CC4)cc3c2)n1 [Compound P-0160, N-(2-cyano-2-methyl-propyl)-6-[2-(1,1-dioxo-3,6-dihydro-2H-thiopyran-4-yl)-1H-pyrrolo[2,3-b]pyridin-5-yl]pyridine-2-carboxamide]
